Experimental data from patent US20110152092A1, “Herbicidal compositions comprising flufenacet” (Bayer CropScience AG, priority 2009, published 2011).

Experiments:
[1] = tested on: STEME; assay: Greenhouse trial, PO application, post-emergence action against weeds (test method 2); type: in vivo, Stellaria media; conditions: g of AS/ha: (A) 120, (B) 1200, (C) 120, mixture 120 + 1200 + 120
Description: (§1) In the standard design of the test, seeds of various broad-leaved weed and weed grass biotypes (origins) were sown in a 8-13 cm diameter pot filled with natural soil of a standard field soil (loamy silt; non-sterile) and covered with a covering soil layer of about 1 cm. The pots were then cultivated in a greenhouse (12-16 h of light, temperature day 20-22° C., night 15-18° C.) until the time of application. The pots were treated on a laboratory track sprayer with spray liquors comprising the compositions according to the invention, mixtures of the prior art or components used individually. Application of the active compounds or active compound combinations formulated as WG, WP, EC or otherwise was carried out at the appropriate growth stages of the plants. The application rate for the spray application was 100-600 l of water/ha. After the treatment, the plants were returned to the greenhouses.
(§2) About 3 weeks after the application, the soil action or/and foliar action was assessed visually according to a scale of 0-100% in comparison to an untreated comparative group: 0%=no noticeable effect compared to the untreated comparative group; 100%=full effect compared to the untreated comparative group. […]

[2] = tested on: HORVS; assay: Greenhouse trial, pre-sowing application 7 days prior to sowing (test method 5); type: in vivo, Hordeum vulgare, summer barley; conditions: g of AS/ha: (A) 90, (B) 1200, (C) 90, mixture 90 + 1200
Description: as §1, §2

[3] = tested on: TRZAW; assay: Greenhouse trial, PE application at different sowing depths (test method 9); type: in vivo, Triticum aestivum, winter wheat; conditions: g of AS/ha: (A) 120, (B) 1200, (C) 90, mixture 90 + 1200 + 90
Description: as §1
(§3) About 3 weeks after the application, the soil action or/and foliar action was assessed visually according to a scale of 0-100% in comparison to an untreated comparative group: 0%=no noticeable effect compared to the untreated comparative group; 100%=full effect compared to the untreated comparative group.
(notes: the term “seeds” also includes vegetative propagation forms such as, for example, rhizome pieces; abbreviations used: h light=hours of illumination, g of AS/ha=gram of active substance per hectare, l/ha=liter per hectare, S=sensitive, R=resistant) • 1. Pre-emergence action against weeds: seeds of various broad-leaved weed and weed grass biotypes (origins) were sown in a 8-13 cm diameter pot filled with natural soil of a standard field soil (loamy silt; non-sterile) and covered with a covering soil layer of about 1 cm. The pots were then cultivated in a greenhouse (12-16 h of light, temperature day 20-22° C., night 15-18° C.) until the time of application. The pots were treated at the BBCH stage 00-10 of the seeds/plants on a laboratory track sprayer with spray liquors comprising the compositions according to the invention, mixtures or components used individually, as WG, WP, EC or other formulations. The application rate for the spray application was 100-600 l of water/ha. After the treatment, the plants were returned to the greenhouses and, when required, treated with fertilizer and watered. • 2. Post-emergence action against weeds: seeds of various broad-leaved weed and weed grass biotypes (origins) were sown in a 8-13 cm diameter pot filled with natural soil of a standard field soil (loamy silt; non-sterile) and covered with a covering soil layer of about 1 cm. The pots were then cultivated in a greenhouse (12-16 h of light, temperature day 20-22° C., night 15-18° C.) until the time of application. […]

[4] = tested on: LOLPE; assay: Greenhouse trial, pre-sowing application 7 days prior to sowing (test method 5); type: in vivo, Lolium perenne; conditions: g of AS/ha: (A) 90, (B) 1200, (C) 90, mixture 90 + 1200
Description: as §1, §2

[5] = tested on: AVEFA; assay: Greenhouse trial, PE application with different irrigation variations (test method 6); type: in vivo, Avena fatua; conditions: g of AS/ha: (A) 120, (B) 1200, (C) 90, mixture 120 + 1200 + 90
Description: as §1, §2

[6] = tested on: STEME; assay: Greenhouse trial, PE application on sensitive and resistant biotypes (test method 8); type: in vivo, Stellaria media; conditions: g of AS/ha: (A) 90, (B) 1200, (C) 90, mixture 90 + 1200 + 90, iodosulfuron 10
Description: as §1, §2

[7] = tested on: ALOMY; assay: as above; type: in vivo, Alopecurus myosuroides; conditions: g of AS/ha: (A) 90, (B) 1200, (C) 90, mixture 90 + 1200 + 90, iodosulfuron 10
Description: as §1, §3
(notes: the term “seeds” also includes vegetative propagation forms such as, for example, rhizome pieces; abbreviations used: h light=hours of illumination, g of AS/ha=gram of active substance per hectare, l/ha=liter per hectare, S=sensitive, R=resistant) • 1. Pre-emergence action against weeds: seeds of various broad-leaved weed and weed grass biotypes (origins) were sown in a 8-13 cm diameter pot filled with natural soil of a standard field soil (loamy silt; non-sterile) and covered with a covering soil layer of about 1 cm. The pots were then cultivated in a greenhouse (12-16 h of light, temperature day 20-22° C., night 15-18° C.) until the time of application. The pots were treated at the BBCH stage 00-10 of the seeds/plants on a laboratory track sprayer with spray liquors comprising the compositions according to the invention, mixtures or components used individually, as WG, WP, EC or other formulations. The application rate for the spray application was 100-600 l of water/ha. After the treatment, the plants were returned to the greenhouses and, when required, treated with fertilizer and watered. • 2. Post-emergence action against weeds: seeds of various broad-leaved weed and weed grass biotypes (origins) were sown in a 8-13 cm diameter pot filled with natural soil of a standard field soil (loamy silt; non-sterile) and covered with a covering soil layer of about 1 cm. The pots were then cultivated in a greenhouse (12-16 h of light, temperature day 20-22° C., night 15-18° C.) until the time of application. The pots were treated at various BBCH stages between 11-25 of the seeds/plants, i.e. generally between two to three weeks after the start of the cultivation, on a laboratory track sprayer with spray liquors comprising the compositions according to the invention, mixtures or components used individually, as WG, WP, EC or other formulations. The application rate for the spray application was 100-600 l of water/ha. After the treatment, the plants were returned to the greenhouses and, when required, treated with fertilizer and watered. • 3. Selective pre-emergence action: seeds of various crop species (origins) were sown in a 8-13 cm diameter pot filled with natural soil of a standard field soil (loamy silt; non-sterile) and covered with a covering soil layer of about 1 cm. The pots were then cultivated in a greenhouse (12-16 h of light, temperature day 20-22° C., night 15-18° C.) until the time of application. The pots were treated at the BBCH stage 00-10 of the seeds/plants on a laboratory track sprayer with spray liquors comprising the compositions according to the invention, mixtures or components used individually, as WG, WP, EC or other formulations. The application rate for the spray application was 100-600 l of water/ha. […]

[8] = tested on: AVEFA; assay: Greenhouse trial, PE application, pre-emergence action against weeds (test method 1); type: in vivo, Avena fatua; conditions: g of AS/ha: (A) 90, (B) 1200, (C) 90, mixture 90 + 1200
Description: as §1, §2

[9] = tested on: AVEFA; assay: Greenhouse trial, pre-sowing application 7 days prior to sowing (test method 5); type: in vivo, Avena fatua; conditions: g of AS/ha: (A) 90, (B) 1200, (C) 90, mixture 90 + 1200
Description: as §1, §2

[10] = tested on: LOLPE; assay: Greenhouse trial, PE application, pre-emergence action against weeds (test method 1); type: in vivo, Lolium perenne; conditions: g of AS/ha: (A) 90, (B) 1200, (C) 90, mixture 90 + 1200
Description: as §1, §2

[11] = tested on: HORVS; assay: Greenhouse trial, activity with different soil types; type: in vivo, Hordeum vulgare, summer barley; conditions: g of AS/ha: (A) 120, (B) 1200, (C) 90, mixture 120 + 1200 + 90
Description: as §1, §3
(notes: the term “seeds” also includes vegetative propagation forms such as, for example, rhizome pieces; abbreviations used: h light=hours of illumination, g of AS/ha=gram of active substance per hectare, l/ha=liter per hectare, S=sensitive, R=resistant) • 1. Pre-emergence action against weeds: seeds of various broad-leaved weed and weed grass biotypes (origins) were sown in a 8-13 cm diameter pot filled with natural soil of a standard field soil (loamy silt; non-sterile) and covered with a covering soil layer of about 1 cm. The pots were then cultivated in a greenhouse (12-16 h of light, temperature day 20-22° C., night 15-18° C.) until the time of application. The pots were treated at the BBCH stage 00-10 of the seeds/plants on a laboratory track sprayer with spray liquors comprising the compositions according to the invention, mixtures or components used individually, as WG, WP, EC or other formulations. The application rate for the spray application was 100-600 l of water/ha. After the treatment, the plants were returned to the greenhouses and, when required, treated with fertilizer and watered. • 2. Post-emergence action against weeds: seeds of various broad-leaved weed and weed grass biotypes (origins) were sown in a 8-13 cm diameter pot filled with natural soil of a standard field soil (loamy silt; non-sterile) and covered with a covering soil layer of about 1 cm. The pots were then cultivated in a greenhouse (12-16 h of light, temperature day 20-22° C., night 15-18° C.) until the time of application. The pots were treated at various BBCH stages between 11-25 of the seeds/plants, i.e. generally between two to three weeks after the start of the cultivation, on a laboratory track sprayer with spray liquors comprising the compositions according to the invention, mixtures or components used individually, as WG, WP, EC or other formulations. The application rate for the spray application was 100-600 l of water/ha. After the treatment, the plants were returned to the greenhouses and, when required, treated with fertilizer and watered. • 3. […]

CCC(CC)Nc1c([N+](=O)[O-])cc(C)c(C)c1[N+](=O)[O-] [(B) pendimethalin, N-(1-ethylpropyl)-3,4-dimethyl-2,6-dinitrobenzenamine]
activity STEME (visual, scale 0-100%) [1]: 30%
activity on crop plant HORVS (visual, scale 0-100%) [2]: 30%
activity on crop plant TRZAW 5 mm (visual, scale 0-100%) ([3]; sowing depth 5 mm): 45%
activity on crop plant TRZAW 20 mm (visual, scale 0-100%) ([3]; sowing depth 20 mm): 10%
activity LOLPE (visual, scale 0-100%) [4]: 80%
activity AVEFA (visual, scale 0-100%) ([5]; irrigation from above): 80%
activity AVEFA (visual, scale 0-100%) ([5]; irrigation from below): 40%
activity STEME resistant (visual, scale 0-100%) ([6]; resistant biotype): 10%
activity STEME sensitive (visual, scale 0-100%) ([6]; sensitive biotype): 70%
activity ALOMY resistant (visual, scale 0-100%) ([7]; resistant biotype): 40%
activity ALOMY sensitive (visual, scale 0-100%) ([7]; sensitive biotype): 30%
activity AVEFA (visual, scale 0-100%) [8]: 40%
activity AVEFA (visual, scale 0-100%) [9]: 70%
activity LOLPE (visual, scale 0-100%) [10]: 10%
activity on crop plant HORVS IU soil (visual, scale 0-100%) ([11]; IU soil): 20%
Difference (of the soil types), HORVS ([11]; IU/EC73 soil versus IU soil): −20%
activity on crop plant HORVS IU/EC73 soil (visual, scale 0-100%) ([11]; IU/EC73 soil): 0%
